In PubChem BioAssay (NCI):
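Values below derive from 48-hour exposures of cells grown in 96-well plates, with endpoints linearly interpolated between the two concentrations bracketing the appropriate inhibition level. GI50: concentration for 50% inhibition of growth. TGI marks complete inhibition of growth.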

How the values were obtained:
Experiment in all cases: inhibition of tumour cell growth, NCI panel, 48 h; in the data active means GI50 below about 0.43 µM; inactive means the rest
MDA-MB-435 = test system: MDA-MB-435
HCT-15 colon = test system: HCT-15 colon
ACHN renal = test system: ACHN renal
OVCAR-4 ovarian = test system: OVCAR-4 ovarian
K-562 leukemia = test system: K-562 leukemia
KM12 colon = test system: KM12 colon
NCI-H226 lung = test system: NCI-H226 lung
OVCAR-5 ovarian = test system: OVCAR-5 ovarian
CAKI-1 renal = test system: CAKI-1 renal
HCC-2998 colon = test system: HCC-2998 colon
A549 NSCLC = test system: A549 NSCLC
RXF 393 renal = test system: RXF 393 renal
DU-145 prostate = test system: DU-145 prostate
LOX IMVI melanoma = test system: LOX IMVI melanoma
UO-31 renal = test system: UO-31 renal
T-47D breast = test system: T-47D breast
MOLT-4 leukemia = test system: MOLT-4 leukemia
HL-60(TB) leukemia = test system: HL-60(TB) leukemia
A498 renal = test system: A498 renal
SW-620 colon = test system: SW-620 colon
SK-MEL-2 melanoma = test system: SK-MEL-2 melanoma
NCI/ADR-RES ovarian = test system: NCI/ADR-RES ovarian
SR leukemia = test system: SR leukemia
SNB-19 CNS = test system: SNB-19 CNS
MDA-MB-231 breast = test system: MDA-MB-231 breast
HCT-116 colon = test system: HCT-116 colon
NCI-H522 lung = test system: NCI-H522 lung
UACC-62 melanoma = test system: UACC-62 melanoma
BT-549 breast = test system: BT-549 breast
RPMI-8226 leukemia = test system: RPMI-8226 leukemia
MALME-3M melanoma = test system: MALME-3M melanoma
SF-268 CNS = test system: SF-268 CNS
OVCAR-3 ovarian = test system: OVCAR-3 ovarian
PC-3 prostate = test system: PC-3 prostate
SF-295 CNS = test system: SF-295 CNS
MCF7 breast = test system: MCF7 breast
SK-OV-3 ovarian = test system: SK-OV-3 ovarian
HT29 colon = test system: HT29 colon
786-0 renal = test system: 786-0 renal
TK-10 renal = test system: TK-10 renal
SK-MEL-5 melanoma = test system: SK-MEL-5 melanoma
NCI-H460 lung = test system: NCI-H460 lung
HOP-92 NSCLC = test system: HOP-92 NSCLC
HOP-62 NSCLC = test system: HOP-62 NSCLC
U251 CNS = test system: U251 CNS
EKVX NSCLC = test system: EKVX NSCLC
SF-539 CNS = test system: SF-539 CNS
SK-MEL-28 melanoma = test system: SK-MEL-28 melanoma
NCI-H23 lung = test system: NCI-H23 lung
SNB-75 CNS = test system: SNB-75 CNS
COLO 205 colon = test system: COLO 205 colon
M14 melanoma = test system: M14 melanoma
OVCAR-8 ovarian = test system: OVCAR-8 ovarian
UACC-257 melanoma = test system: UACC-257 melanoma
IGROV1 ovarian = test system: IGROV1 ovarian
HS 578T breast = test system: HS 578T breast
SN12C renal = test system: SN12C renal

COc1ccc(C23OCC(Cc4cc(OC)c(OC)cc42)C3COC(C)=O)cc1OC (stereo not given)
> 100 µM: TGI (MDA-MB-435) | TGI (HCT-15 colon) | TGI (ACHN renal) | TGI (OVCAR-4 ovarian) | TGI (K-562 leukemia) | TGI (KM12 colon) | TGI (NCI-H226 lung) | TGI (OVCAR-5 ovarian) | TGI (CAKI-1 renal) | TGI (HCC-2998 colon) | TGI (A549 NSCLC) | TGI (RXF 393 renal) | TGI (DU-145 prostate) | TGI (LOX IMVI melanoma) | TGI (UO-31 renal) | TGI (T-47D breast) | TGI (MOLT-4 leukemia) | TGI (HL-60(TB) leukemia) | TGI (A498 renal) | TGI (SW-620 colon) | TGI (SK-MEL-2 melanoma) | TGI (NCI/ADR-RES ovarian) | TGI (SR leukemia) | TGI (SNB-19 CNS) | TGI (MDA-MB-231 breast) | TGI (HCT-116 colon) | TGI (NCI-H522 lung) | TGI (UACC-62 melanoma) | TGI (BT-549 breast) | TGI (RPMI-8226 leukemia) | TGI (MALME-3M melanoma) | TGI (SF-268 CNS) | TGI (OVCAR-3 ovarian) | TGI (PC-3 prostate) | TGI (SF-295 CNS) | TGI (MCF7 breast) | TGI (SK-OV-3 ovarian) | TGI (HT29 colon) | TGI (786-0 renal) | TGI (TK-10 renal) | TGI (SK-MEL-5 melanoma) | TGI (NCI-H460 lung) | TGI (HOP-92 NSCLC) | TGI (HOP-62 NSCLC) | TGI (U251 CNS) | TGI (EKVX NSCLC) | TGI (SF-539 CNS) | TGI (SK-MEL-28 melanoma) | TGI (NCI-H23 lung) | TGI (SNB-75 CNS) | TGI (COLO 205 colon) | TGI (M14 melanoma)

CC1OC(OC2C(O)C(OCCc3ccc(O)c(O)c3)OC(CO)C2OC(=O)/C=C/c2ccc(O)c(O)c2)C(O)C(O)C1OC1OCC(O)(CO)C1O (stereo not given)
23.7 µM: TGI (SF-268 CNS)
> 100 µM: TGI (HCT-15 colon) | TGI (OVCAR-4 ovarian) | TGI (K-562 leukemia) | TGI (KM12 colon) | TGI (NCI-H226 lung) | TGI (OVCAR-5 ovarian) | TGI (CAKI-1 renal) | TGI (A549 NSCLC) | TGI (RXF 393 renal) | TGI (DU-145 prostate) | TGI (UO-31 renal) | TGI (T-47D breast) | TGI (MOLT-4 leukemia) | TGI (HL-60(TB) leukemia) | TGI (OVCAR-8 ovarian) | TGI (SK-MEL-2 melanoma) | TGI (NCI/ADR-RES ovarian) | TGI (SR leukemia) | TGI (SNB-19 CNS) | TGI (MDA-MB-231 breast) | TGI (NCI-H522 lung) | TGI (UACC-62 melanoma) | TGI (RPMI-8226 leukemia) | TGI (OVCAR-3 ovarian) | TGI (PC-3 prostate) | TGI (SF-295 CNS) | TGI (SK-OV-3 ovarian) | TGI (786-0 renal) | TGI (TK-10 renal) | TGI (UACC-257 melanoma) | TGI (SK-MEL-5 melanoma) | TGI (IGROV1 ovarian) | TGI (NCI-H460 lung) | TGI (HOP-62 NSCLC) | TGI (U251 CNS) | TGI (HS 578T breast) | TGI (EKVX NSCLC) | TGI (SN12C renal) | TGI (SK-MEL-28 melanoma) | TGI (SNB-75 CNS) | TGI (COLO 205 colon) | TGI (M14 melanoma)
79 µM: TGI (SF-539 CNS)
57.9 µM: TGI (SW-620 colon)
inactive: GI50 (MDA-MB-435) 16.1 µM | GI50 (HCT-15 colon) > 100 µM | GI50 (OVCAR-4 ovarian) > 100 µM | GI50 (K-562 leukemia) 39.3 µM | GI50 (KM12 colon) > 100 µM | GI50 (NCI-H226 lung) > 100 µM | GI50 (OVCAR-5 ovarian) > 100 µM | GI50 (CAKI-1 renal) 7.71 µM | GI50 (A549 NSCLC) > 100 µM | GI50 (RXF 393 renal) > 100 µM | GI50 (DU-145 prostate) 30.1 µM | GI50 (LOX IMVI melanoma) 17.2 µM | GI50 (UO-31 renal) > 100 µM | GI50 (T-47D breast) > 100 µM | GI50 (MOLT-4 leukemia) 55.6 µM | GI50 (HL-60(TB) leukemia) 69.8 µM | GI50 (OVCAR-8 ovarian) > 100 µM | GI50 (SW-620 colon) 25 µM | GI50 (SK-MEL-2 melanoma) > 100 µM | GI50 (NCI/ADR-RES ovarian) 89 µM | GI50 (SR leukemia) 52.1 µM | GI50 (SNB-19 CNS) > 100 µM | GI50 (MDA-MB-231 breast) > 100 µM | GI50 (HCT-116 colon) 20.3 µM | GI50 (NCI-H522 lung) > 100 µM | GI50 (UACC-62 melanoma) > 100 µM | GI50 (BT-549 breast) 19.8 µM | GI50 (RPMI-8226 leukemia) 38.5 µM | GI50 (OVCAR-3 ovarian) 27.4 µM | GI50 (PC-3 prostate) 0.85 µM | GI50 (SF-295 CNS) > 100 µM | GI50 (SK-OV-3 ovarian) > 100 µM | GI50 (786-0 renal) 44.6 µM | GI50 (TK-10 renal) > 100 µM | GI50 (UACC-257 melanoma) > 100 µM | GI50 (SK-MEL-5 melanoma) > 100 µM | GI50 (IGROV1 ovarian) > 100 µM | GI50 (NCI-H460 lung) 96.9 µM | GI50 (HOP-62 NSCLC) > 100 µM | GI50 (U251 CNS) > 100 µM | GI50 (HS 578T breast) > 100 µM | GI50 (EKVX NSCLC) > 100 µM | GI50 (SN12C renal) > 100 µM | GI50 (SF-539 CNS) 24.6 µM | GI50 (SK-MEL-28 melanoma) > 100 µM | GI50 (SNB-75 CNS) > 100 µM | GI50 (COLO 205 colon) > 100 µM | GI50 (M14 melanoma) > 100 µM
active: GI50 (SF-268 CNS) 0.0141 µM
42.2 µM: TGI (BT-549 breast)
35.3 µM: TGI (MDA-MB-435) | TGI (LOX IMVI melanoma)
47.7 µM: TGI (HCT-116 colon)
